Measured values: patent publication US20230063703A1, “DRUG AND FOOD FOR TREATING AND/OR PREVENTING ENTERITIS AND/OR HEPATITIS” (priority 2020, published 2023)
Read-outs that look alike come from different tables or passages of the source.

Key:
[1] = tested on: DSS-induced colitis model mice; assay: Enteritis-inhibiting effect of single species D-amino acids in DSS-induced colitis model mice; assay type: in vivo, mice (B6CL57); settings: single D-amino acid in drinking water 3 weeks, then 2% DSS; 8th day; compared with water containing all five D-amino acids
Method: The DAI scores were assigned for the following: diarrhea symptom (normal: 0, soft feces: 1, mild diarrhea: 2, moderate diarrhea: 3, severe diarrhea: 4); bloody stool symptom (normal: 0, mild bloody stool: 1, moderate bloody stool: 2, severe bloody stool: 3, severe bloody stool with anal bleeding: 4); and body weight reduction (None: 0, 1% to 5%: 1, 5% to 10%: 2, 10% to 20%: 3, ÷20%: 4), and the total values were calculated (minimum 0 points, maximum 12 points), for each mouse.

[2] = Blood D-serine concentration in mice given drinking water containing D-serine; assay type: in vivo; settings: free access to drinking water containing 1% D-serine
Excerpt: The blood concentration of administered D-serine is preferably 5 nmol/mL or greater, more preferably 10 nmol/mL or greater and even more preferably 50 nmol/mL or greater. The D-serine blood concentration is also preferably 1 μmol/mL or lower, more preferably 0.5 μmol/mL or lower and even more preferably 0.1 μmol/mL or lower.

kidneys = settings: cited from earlier work; for toxicity on the kidneys: rat, in vivo, ip; for amino acid excretion: after 2 hours

SMILES	DAI score [1]	body weight reduction suppressing effect [1]	further results
N[C@H](Cc1c[nH]c2ccccc12)C(=O)O [D-Trp, D-tryptophan]	significantly inhibited enteritis more than the drinking water containing all five D-amino acids	significantly inhibited enteritis more than the drinking water containing all five D-amino acids	–
N[C@H](CO)C(=O)O [D-Ser, D-serine]	equivalent to drinking water containing all five D-amino acids	equivalent to drinking water containing all five D-amino acids	blood D-serine concentration [2]: 100 nmol/mL; toxicity on the kidneys (kidneys; 26 mg/kg): no toxicity; toxicity on the kidneys (kidneys; 267 mg/kg): toxicity of D-serine on the kidneys was exhibited; toxicity on the kidneys (kidneys; 800 mg/kg): toxicity of D-serine on the kidneys was exhibited; amino acid excretion (kidneys; rats, intraperitoneal, 26 mg/kg): no effect; amino acid excretion (kidneys; rats, intraperitoneal, 80 mg/kg): no effect; amino acid excretion (kidneys; rats, intraperitoneal, 267 mg/kg): significantly increased; amino acid excretion (kidneys; rats, intraperitoneal, 800 mg/kg): significantly increased; nephrotoxicity (kidneys; rats, intraperitoneal, doses such as 800 mg/kg, 400 mg/kg or 250 mg/kg): causes nephrotoxicity
N[C@H](CC(=O)O)C(=O)O [D-Asp, D-aspartic acid]	equivalent to drinking water containing all five D-amino acids	equivalent to drinking water containing all five D-amino acids	–
C[C@@H](N)C(=O)O [D-Ala, D-alanine]	equivalent to drinking water containing all five D-amino acids	equivalent to drinking water containing all five D-amino acids	–
N[C@H](CCC(=O)O)C(=O)O [D-Glu, D-glutamic acid]	significantly inhibited enteritis more than the drinking water containing all five D-amino acids	significantly inhibited enteritis more than the drinking water containing all five D-amino acids	–
